Literature values, collected in patent US20080171724A1, “Phosphonate Derivatives of Mycophenolic Acid” (GILEAD SCIENCES, INC., priority 2004, published 2008).

Conditions: after oral or intravenous administration; converted to active metabolite mycophenolic acid

- fraction of the drug cleared by glucuronidation and excreted in the urine: over 90%
Compound: COc1c(C)c2c(c(O)c1C/C=C(\C)CCC(=O)OCCN1CCOCC1)C(=O)OC2 [Mycophenolate mofetil]
